This is an account of results in US7425557B2, “Inhibitors of glycogen synthase kinase 3” (Novartis Vaccines and Diagnostics, Inc., priority 1998, dated 2008).

Bounds are passed on as bounds.

The target in the test is human GSK3β (Homo sapiens, UniProt P49841). Nature of the test: Screening for GSK3 inhibitory activity using a cell-free assay. Type of test: biochemical. As to conditions: read-out: IC50 with respect to GSK3. On the procedure: This amount represents the amount of radiolabeled phosphate incorporated into the peptide substrate.
Sequence of human GSK3β (P49841 whole entry): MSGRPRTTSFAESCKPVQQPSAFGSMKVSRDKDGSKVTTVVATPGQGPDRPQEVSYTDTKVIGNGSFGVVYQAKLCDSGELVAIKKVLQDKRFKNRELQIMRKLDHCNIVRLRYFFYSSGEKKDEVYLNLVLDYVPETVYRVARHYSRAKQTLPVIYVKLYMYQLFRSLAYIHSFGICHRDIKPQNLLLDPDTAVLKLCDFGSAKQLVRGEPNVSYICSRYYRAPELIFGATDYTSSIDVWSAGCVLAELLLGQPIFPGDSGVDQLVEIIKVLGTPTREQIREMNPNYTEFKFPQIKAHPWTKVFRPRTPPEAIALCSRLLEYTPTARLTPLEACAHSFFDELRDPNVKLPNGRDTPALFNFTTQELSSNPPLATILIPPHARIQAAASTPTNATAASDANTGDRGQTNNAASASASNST
The captured radiolabeled peptide substrate can be quantitated in a scintillation counter using known methods. […] If an inhibitor is present during the reaction, GSK3 activity will be reduced, and a smaller quantity of radiolabeled phosphate will thus be incorporated into the peptide substrate.
Pyrimidine and pyridine compounds of the present invention were dissolved in DMSO, then tested for inhibition of human GSK3β (the nucleotide sequence for human GSK3β appears in GenBank under Accession No. L33801).
While the reaction was proceeding, streptavidin-coated Labsystems “Combiplate 8” capture plates (Labsystems, Helsinki, Finland) were blocked by incubating them with 300 μl/well of PBS containing 1% bovine serum albumin for at least one hour at room temperature. The blocking solution was then removed by aspiration, and the capture plates were filled with 100 ul/well of stopping reagent (50 μM ATP/20 mM EDTA).
When the three hour enzyme reaction was finished, triplicate 100 μl aliquots of each reaction mix were transferred to three wells containing stopping solution, one well on each of the three capture plates, and the well contents were mixed well. […] Finally, 200 μl of Microscint-20 scintillation fluid was added to each well of the plate. The plates were coated with plate sealers, then left on a shaker for 30 minutes. Each capture plate was counted in a Packard TopCount scintillation counter (Meridian, Conn.) and the results were plotted as a function of compound concentration.
A word on the IC50: it is the point on the concentration scale where inhibition reaches its midpoint. As for `COc1ccc(OC)c(CCNc2nccc(-c3ccc(C#N)cc3)n2)c1` [4-(2-{[2-(2,5-dimethoxyphenyl)ethyl]amino}pyrimidin-4-yl)benzene-carbonitrile], the IC50 is no more than 10000 nM.
In the case of `N#CCNC(=O)c1cnc(NCCNc2ccc([N+](=O)[O-])cn2)nc1-c1ccc(C#N)cc1` [N-(cyanomethyl)[4-(4-cyanophenyl)-2-({2-[(5-nitro(2-pyridyl))amino]ethyl}amino)pyrimidin-5-yl]carboxamide], the half-maximal inhibitory concentration (IC50) was no more than 1000 nM.
As to `NC(=O)c1ccc(-c2ccnc(NCCCOc3ccc(Cl)cc3Cl)n2)cc1` [4-(2-{[3-(2,4-dichlorophenoxy)propyl]amino}pyrimidin-4-yl)benzamide], the concentration for half-maximal inhibition (IC50) was no more than 10000 nM.
The result for `Cn1ccnc1-c1cnc(NCCNc2ccc([N+](=O)[O-])cn2)nc1-c1ccc(Cl)cc1Cl` [[4-(2,4-dichlorophenyl)-5-(1-methylimidazol-2-yl)pyrimidin-2-yl]{2-[(5-nitro(2-pyridyl))amino]-ethyl}amine] reads no more than 1000 nM; that for `CCOC(=O)c1cnc(NCCc2ccccn2)nc1-c1ccco1` [ethyl 4-(2-furyl)-2-[(2-(2-pyridyl)ethyl)amino]pyrimidine-5-carboxylate], no more than 10000 nM; that for `NC(=O)c1ccc(-c2ccnc(NCc3ccc(C(F)(F)F)cc3)n2)cc1` [4-[2-({[4-(trifluoromethyl)phenyl]methyl}amino)pyrimidin-4-yl]benzamide], no more than 10000 nM.
The result for `CCOC(=O)c1cnc(NCCNc2ccc([N+](=O)[O-])cn2)nc1-c1ccc(Cl)cc1Cl` [ethyl 4-(2,4-dichlorophenyl)-2-({2-[(5-nitro(2-pyridyl))amino]ethyl}amino)-pyrimidine-5-carboxylate] reads no more than 1000 nM; that for `CCOC(=O)c1cnc(NCCNc2ccc([N+](=O)[O-])cn2)nc1-c1ccncc1` [ethyl 2-({2-[(5-nitro(2-pyridyl))amino]ethyl}amino)-4-(4-pyridyl)pyrimidine-5-carboxylate], no more than 1000 nM; that for `CN(C)CCN(CCNc1ccc([N+](=O)[O-])cn1)c1ncc(-n2ccnc2)c(-c2ccc(Cl)cc2Cl)n1` [[4-(2,4-dichlorophenyl)-5-imidazolylpyrimidin-2-yl][2-(dimethylamino)ethyl]{2-[(5-nitro(2-pyridyl))amino]ethyl}amine], no more than 1000 nM.
The result for `COc1cccc(-c2cccc(CNc3nccc(-c4ccc(C(N)=O)cc4)n3)c2)c1` [4-[2-({[3-(3-methoxyphenyl)phenyl]methyl}amino)pyrimidin-4-yl]benzamide] reads no more than 10000 nM; that for `N#Cc1ccc(CNc2nccc(-c3ccc(C(N)=O)cc3)n2)cc1` [4-(2-{[(4-cyanophenyl)methyl]amino}pyrimidin-4-yl)benzamide], no more than 10000 nM.
On to `Oc1ccc(-c2ccnc(NCCCc3nc(Cl)c(Cl)[nH]3)n2)cc1` [4-(2-{[3-(4,5-dichloroimidazolyl)propyl]amino}pyrimidin-4-yl)phenol], for which the IC50 is no more than 1000 nM.
With `CCOC(=O)c1cnc(NCCNc2ccc([N+](=O)[O-])cn2)nc1-c1ccc(Cl)c(Cl)c1` [ethyl 4-(3,4-dichlorophenyl)-2-({2-[(5-nitro(2-pyridyl))amino]ethyl}amino)pyrimidine-5-carboxylate], the IC50 was no more than 10000 nM.
The result for `N#Cc1ccc(-c2nc(NCCNc3ccc([N+](=O)[O-])cn3)ncc2C(=O)NCCN)cc1` [N-(2-aminoethyl)[4-(4-cyanophenyl)-2-({2-[(5-nitro(2-pyridyl))amino]ethyl}amino)pyrimidin-5-yl]carboxamide] reads no more than 1000 nM; that for `O=c1ccccn1-c1cnc(NCCNc2ccc([N+](=O)[O-])cn2)nc1-c1ccc(Cl)cc1Cl`, no more than 1000 nM; that for `c1ccc(-c2ccnc(NCCc3ccccn3)n2)cc1` [(4-phenylpyrimidin-2-yl)(2-(2-pyridyl)ethyl)amine], no more than 10000 nM.
For the molecule `N#Cc1cccc(-c2nc(NCCNc3ccc([N+](=O)[O-])cn3)nc(-c3ccc([N+](=O)[O-])cc3)c2C(=O)O)c1` [4-(3-cyanophenyl)-2-({2-[(5-nitro(2-pyridyl))amino]ethyl}amino)-6-(4-nitrophenyl)pyrimidine-5-carboxylic acid], the 50% inhibitory concentration (IC50) was no more than 10000 nM.
In the case of `CCOC(=O)c1cnc(NCCNc2ccc([N+](=O)[O-])cn2)nc1-c1ccc2c(c1)OCO2`, the IC50 was no more than 1000 nM.
In the case of `N#Cc1ccc(-c2nc(NCCNc3ccc([N+](=O)[O-])cn3)ncc2C(=O)N2CCOCC2)cc1` [4-[5-(morpholin-4-ylcarbonyl)-2-({2-[(5-nitro(2-pyridyl))amino]ethyl}-amino)pyrimidin-4-yl]benzenecarbonitrile], the IC50 was no more than 1000 nM.
Consider `O=[N+]([O-])c1ccc(NCCNc2ccc([N+](=O)[O-])c(NCc3ccccc3)n2)nc1` [{2-[(5-nitro(2-pyridyl))amino]ethyl}{5-nitro-6-[benzylamino](2-pyridyl)}amine], for which the IC50 is no more than 10000 nM.
As for `N#Cc1ccc(-c2nc(NCCNc3ccc([N+](=O)[O-])cn3)nc(-c3ccccc3)c2C(=O)O)cc1` [4-(4-cyanophenyl)-2-({2-[(5-nitro(2-pyridyl))amino]ethyl}amino)-6-phenylpyrimidine-5-carboxylic acid], the IC50 was no more than 1000 nM.
`CCOC(=O)c1cnc(NCCNc2ccc(C(=O)OC(C)(C)C)cn2)nc1-c1ccc(C#N)cc1` [tert-butyl 6-[(2-{[4-(4-cyanophenyl)-5-(ethoxycarbonyl)pyrimidin-2-yl]amino}ethyl)amino]pyridine-3-carboxylate]: the IC50 is no more than 10000 nM.
The result for `Nc1nc(NCCNc2ncc(-c3ncc[nH]3)c(-c3ccc(Br)cc3Cl)n2)ccc1[N+](=O)[O-]` [{2-[(6-amino-5-nitro(2-pyridyl))amino]ethyl}[4-(4-bromo-2-chlorophenyl)-5-imidazol-2-ylpyrimidin-2-yl]amine] reads no more than 1000 nM; that for `Cc1cccc(CNC(=O)c2ccc(-c3ccnc(NCCNc4ccc([N+](=O)[O-])cn4)n3)cc2)c1` [N-[(3-methylphenyl)methyl){4-[2-({2-[(5-nitro(2-pyridyl))amino]ethyl}amino)pyrimidin-4-yl]phenyl}carboxamide], no more than 10000 nM; that for `O=[N+]([O-])c1ccc(NCCNc2nccc(NCc3ccc(Cl)cc3Cl)n2)nc1`, no more than 10000 nM.
Regarding `CCOC(=O)c1cnc(NCCNc2ccc([N+](=O)[O-])cn2)nc1-c1ccc(OC(F)(F)F)cc1`, the half-maximal inhibitory concentration (IC50) is no more than 1000 nM.
The result for `Nc1nc(NCCNc2ncc(N3CCOCC3)c(-c3ccc(Cl)cc3Cl)n2)ccc1[N+](=O)[O-]` [{2-[(6-amino-5-nitro(2-pyridyl))amino]ethyl}[4-(2,4-dichlorophenyl)-5-morpholin-4-yl-pyrimidin-2-yl]amine] reads no more than 1000 nM; that for `Cc1cn(-c2ccccc2)nc1-c1ccnc(NCCNc2ccccn2)n1` [[4-(4-methyl-1-phenylpyrazol-3-yl)pyrimidin-2-yl][2-(2-pyridyl-amino)ethyl]amine], no more than 10000 nM.
On to `NC(=O)c1ccc(-c2ccnc(NCCCNc3ccc([N+](=O)[O-])cn3)n2)cc1` [4-[2-({3-[(5-nitro-2-pyridyl)amino]propyl}amino)pyrimidin-4-yl]benzamide], for which the IC50 was no more than 1000 nM.
The result for `O=[N+]([O-])c1ccc(NCCNc2ncc(-c3ncc[nH]3)c(-c3ccc(Br)cc3Cl)n2)nc1` [[4-(4-bromo-2-chlorophenyl)-5-imidazol-2-ylpyrimidin-2-yl]{2-[(5-nitro(2-pyridyl))amino]ethyl}amine] reads no more than 1000 nM.
